Measured values published in US11261232B2, “TNFRSF14 / HVEM proteins and methods of use thereof” (MEMORIAL SLOAN KETTERING CANCER CENTER, priority 2015, dated 2022).

How the values were obtained:
[1] = test system: mouse lymphoma lines (BCL1 and Myc/Bc12); assay: qRT-PCR of TNF family cytokines in mouse lymphoma lines; type: cell-based; details: solHVEM 10 μg/ml; BCL1 and Myc/Bcl2 lines; 24 hrs
Text: FIG. 5A-I. Abnormal activation of the lymphoid stroma in B-cell lymphomas. FIG. 5A, Immunohistofluorescence staining for the FDC marker CD21/35 and the FRC marker Collagen 1 on control lymphomas (vector) and HVEM knockdown lymphomas (shHVEM) (n=3 for each, scale bars=100 μm); FIG. 5B and FIG. 5C, Systematic quantification of CD21/35 (left) and collagen I (right) staining in control (Vector) and HVEM deficient (shHVEM) lymphomas based on 12 areas in the T-cell zone and 30 areas in the B-cell zone per mice (cumulative number for 3 mice), respectively; ** p<0.01; *** p<0.001 by parametric t-test; FIG. 5D and FIG. 5E, CXCL13 (FIG. 5D) and CCL19 (FIG. 5E) expression by qRT-PCR on control (vector) and HVEM knockdown (shHVEM) lymphomas (mean of four replicates, error bars indicate standard deviation, * p<0.01); FIG. 5F, qRT-PCR measurement of the LTa, LTb, and TNFa mRNA expression in B cells isolated from the spleens of vector and shHVEM mice (n=3); FIG. 5G-I, qRT-PCR measurement of TNFa (FIG. 5G), LTa (FIG. 5H), and LTb (FIG. 5I) in B cell line BCL1 after 24 hrs of treatment with solHVEM (10 μg/ml).
FIG. 12A-F. Analysis of the lymphoid stroma in B cell lymphomas. FIG. 12A, Immunohistofluorescence staining of CD20pos B cells, Transglutaminasepos FRCs, and CD21Lpos FDCs in reactive lymph nodes and two separate human follicular lymphoma tissue specimens; FIG. 12B, Flowchart of the image processing for FRC density (Collagen I); briefly, images were thresholded and transformed to binaries images, then a watershed algorithm was applied and number of polygons evaluated and analyzed by ImageJ software; FIG. 12C, Number of polygons indicates FRC density in control lymphomas (vector) and HVEM knockdown lymphomas showing no difference in FRC contribution. 40 areas were selected in the T cell zone and analyzed per mice (n=3 per each group); FIG. 12D-F, qRT-PCR measurement of TNFa (FIG. 12D), LTa (FIG. 12E), and LTb (FIG. 12F) in mouse B-cell line EuMyc-Bc12. […]

[2] = test system: BCR signaling pathway in BCL1 mouse lymphoma cells; assay: BTK phosphorylation by flow cytometry in IgM-stimulated BCL1 cells; type: cell-based; details: solHVEM 10 μg/ml
Procedure: FIG. 4A-E. HVEM blocks BCR signaling in a cell autonomous and BTLA dependent manner. FIG. 4A and FIG. 4B, Quantification of FACS analysis of phosphorylated BTK (pBTK) expression in BCL1 cells after stimulation with anti-IgM in the presence of solHVEM (10 μg/m1) or Ibrutinib (10 nM) without (FIG. 4A) or with (FIG. 4B) the knockdown of BTLA (shBTLA); FIG. 4C, FACS analysis of BTLA expression on purified primary human FL B cells distinguishes samples with high (BTLA^hi) and low (BTLAlo) surface BTLA expression); FIG. 4D, FACS analysis for the indicated signaling molecules in human primary FL B cells that were BTLA^hi or BTLAlo and stimulated with anti-human IgG (3 min; 10 μg/ml and H2O2 1 mM) in the presence or absence of the soluble HVEM ectodomain (solHVEM; 10 μg/ml) (right); FIG. 4E, Percentage of pSyk inhibition was calculated by comparing the ratio of MFI of pSyk+/−solHVEM and was correlated to BTLA ratio of MFI (r=0.697, p=0.03, Purified FL B cells, n=10, grade 1 and grade 2).
Loss of HVEM and BTLA leads to BCR activation in murine lymphomas (FIGS. 2G and 3F). […] Briefly, the BCR signaling pathway in BCL1 mouse lymphoma cells was stimulated with IgM in the presence or absence of solHVEM (10 μg/ml) or the pharmacological BTK inhibitor ibrutinib (10 nM) and BTK phosphorylation was measured as an indicator of BCR pathway activation by flow cytometry. […]

[3] = test system: myc-Bc12 lymphoma cell line; assay: Cell viability by CellTiterGlo; type: cell-based, mouse; details: 5 ug/ml; 24 hours
Procedure: FIG. 18. sTNFRSF14 decreases cell viability in vitro. Cells of the myc-Bc12 lymphoma cell line were plated at a density of 1×10^5 cells/ml and they were treated with sTNFRSF14 (5 ug/ml) or vehicle. After 24 hours of treatment cell viability was assessed using CellTiterGlo reagent.

## solHVEM: Leu39-Val202 soluble HVEM ectodomain polypeptide of SEQ ID NO. 8
[1]
  expression of LTa: readily decreased
  expression of LTb: readily decreased
  expression of TNFa: did not reduce
[2]; BCL1 cells stimulated with IgM
  BTK phosphorylation and activation: blocked BTK phosphorylation and activation
[2]; BCL1 cells with shBTLA
  BTK inhibition with knockdown of BTLA: knockdown of BTLA prevented BTK inhibition

B1: sTNFRSF14: Pro37-Val202 soluble HVEM ectodomain polypeptide of SEQ ID NO. 6 (protein, listed as Homo sapiens)
chain: PALPSCKEDEYPVGSECCPKCSPGYRVKEACGELTGTVCEPCPPGTYIAHLNGLSKCLQCQMCDPAMGLRASRNCSRTENAVCGCSPGHFCIVQDGDHCAACRAYATSSPGQRVQKGGTESQDTLCQNCPPGTFSPNGTLEECQHQTKCSWLVTKAGAGTSSSHWV
[3]
  cell viability: modest decrease
